Tests used:
Assay type in all cases: in vivo
circulating EPO [1] = experiment: Circulating EPO levels in mice after oral gavage of compound A
Procedure: Mice were administered various doses (0, 20, 30, 60 mg/kg) of compound A by oral gavage. Circulating levels of EPO were determined 6 hours after compound administration. […] Administration of 20 mg/kg of compound A increased circulating levels of EPO approximately two-fold.

hematocrit = experiment: Hematocrit in rats after intermittent dosing for 4 weeks
Procedure: Male (diamonds in FIG. 2) and female (triangles in FIG. 2) rats were administered various doses (20, 60, 150, 200, 300 mg/kg) of compound A two times per week (e.g., intermittent dosing) for 4 weeks. Hematocrit was determined on day 32.

serum EPO = experiment: Serum EPO levels in healthy human subjects after compound administration; design: EPO AUC (0-24 hours): unit not given beside the values
Procedure: […] At the indicated times (hours) after compound administration, serum EPO levels were determined.
(§1) Increases in circulating EPO levels following administration of compound A or of rhEPO were compared. Table 3 and Table 2 below show Cmax EPO and EPO Area Under the Curve (AUC) values following intravenous (i.v.) or subcutaneous (s.c.) administration of various doses of rhEPO to human subjects, respectively. […] (See Table 1 below.)

circulating EPO [2] = experiment: Peak circulating (serum) EPO levels in normal monkeys after a single dose; details: 8-12 hours after administration
circulating EPO [3] = experiment: Circulating EPO levels in bilateral nephrectomized and sham-operated mice
Procedure: Mice underwent bilateral nephrectomy (BN) surgery (or were sham-operated). Two hours after BN surgery, mice were administered a single oral dose (30 mg/kg) of compound A. Circulating EPO levels were measured 6 hours after compound administration. […] The kidneys produce the majority of endogenous EPO.

hemoglobin [4] = experiment: Hemoglobin levels in anemic pre-dialysis human subjects with chronic kidney disease; details: for Mean change from Baseline Hb Day 42 (or last value carried forward): oral three-times per week for 4 weeks
Procedure: The effects of compound of the present invention on erythropoiesis in anemic pre-dialysis subjects with advanced stage chronic kidney disease were determined. Study subjects had chronic kidney disease and anemia, having GFR<30 ml/min and Hb<10g/dL. Two anemic pre-dialysis subject populations with chronic kidney disease (CKD) were studied: (1) subjects with no previous exposure to rhEPO (i.e., rhEPO-naive) and (2) subjects who had been receiving continuous rhEPO therapy for at least 8 weeks. In rhEPO-treated subjects, rhEPO administration was discontinued 5-14 days prior to initiation of treatment with compound of the present invention Subjects were orally administered compound A three-times per week for 4 weeks. Erythropoiesis was measured by changes in hemoglobin levels and serum EPO concentrations.

circulating EPO [5] = experiment: Circulating EPO levels in mice after single intravenous or oral gavage dose; details: 6 hours after administration; for EPO Intravenous: single intravenous dose (dose of the table not stated; 2-60 mg/kg tested); for EPO Oral Gavage: single oral gavage dose (dose of the table not stated; 2-60 mg/kg tested)
Procedure: (§2) Mice were administered various doses (2 mg/kg, 6 mg/kg, 20 mg/kg, 60 mg/kg) of compounds of the present invention by oral gavage or by intravenous injection. Circulating levels of EPO were determined […] hours after single-dose administration of compound. Hemoglobin levels were measured in mice on day 8 following administration of compound by oral gavage on day 1, day 3, and day 5.

hemoglobin [6] = experiment: Hemoglobin levels in mice on day 8 after oral gavage on day 1, 3 and 5; details: for Hemoglobin 6 mg/kg cmpd: 6 mg/kg oral gavage on day 1, 3 and 5, measured day 8; for Hemoglobin 20 mg/kg cmpd: 20 mg/kg oral gavage on day 1, 3 and 5, measured day 8; for Hemoglobin 60 mg/kg cmpd: 60 mg/kg oral gavage on day 1, 3 and 5, measured day 8; for Hemoglobin 2 mg/kg cmpd: 2 mg/kg oral gavage on day 1, 3 and 5, measured day 8
Procedure: as §2

[7] = Circulating EPO (Cmax, AUC) after i.v. or s.c. administration of rhEPO to human subjects; details: assumes basal endogenous EPO of ~10 mIU/ml
Description: as §1

With O=C(O)CNC(=O)c1nc(Cl)c2ccccc2c1O [Compound A, [(1-Chloro-4-hydroxy-isoquinoline-3-carbonyl)-amino]-acetic acid] the “circulating levels of EPO” value (circulating EPO [1]; oral gavage 0, 20, 30, 60 mg/kg, 6 hours after administration (FIG. 1)) was “increased EPO levels in mice in a dose-dependent manner”, the “increase of circulating levels of EPO” value (circulating EPO [1]; oral gavage 20 mg/kg, 6 hours after administration) was “approximately two-fold” and the hematocrit (hematocrit; male and female rats, 20, 60, 150, 200, 300 mg/kg two times per week for 4 weeks, day 32 (FIG. 2)) was “increased hematocrit in rats in a dose-dependent manner”. The “erythropoiesis, as determined by hematocrit” value (hematocrit; rats, 20 mg/kg two times per week for 4 weeks, day 32) was “clinically-significant increase in erythropoiesis”, the “serum EPO levels” value (serum EPO; healthy human subjects, 3, 6, 10, 15, 20 mg/kg oral (FIG. 3)) was “increased serum EPO levels in a dose-dependent manner” and the “EPO AUC (0-24 hours)” value (serum EPO; human subjects, PHI dose 6 mg/kg) was 203.5. For the same compound, the “EPO AUC (0-24 hours)” value (serum EPO; human subjects, PHI dose 10 mg/kg) was 331, the “EPO AUC (0-24 hours)” value (serum EPO; human subjects, PHI dose 20 mg/kg) was 365.5 and the “EPO AUC (0-24 hours)” value (serum EPO; human subjects, PHI dose 30 mg/kg) was 508. For the same compound, the “circulating EPO levels compared with rhEPO administration” value (serum EPO; human subjects, therapeutically effective doses of compound A versus rhEPO) was “substantially lower circulating EPO levels”, the “Peak EPO” value (circulating EPO [2]; single dose 13 mg/kg, pre-dose 2.1) was 3.6 and the “Peak EPO” value (circulating EPO [2]; single dose 30 mg/kg, pre-dose 0.6) was 2.9. For the same compound, the “Peak EPO” value (circulating EPO [2]; single dose 40 mg/kg, pre-dose 0.8) was 32.3, the “Peak EPO” value (circulating EPO [2]; single dose 50 mg/kg, pre-dose 0) was 21.4 and the “Peak EPO” value (circulating EPO [2]; single dose 60 mg/kg, pre-dose 0) was 1194.2. The “circulating EPO levels” value (circulating EPO [3]; bilateral nephrectomized (BN) mice, single oral dose 30 mg/kg two hours after surgery, 6 hours after administration (FIG. 4B)) was “significant increase in EPO levels”, the “circulating EPO levels” value (circulating EPO [3]; sham-operated mice, single oral dose 30 mg/kg, 6 hours after administration (FIG. 4A)) was “an increase in circulating levels of EPO” and the “decrease from mean Hb baseline levels” value (hemoglobin [4]; CKD subjects after cessation of rhEPO therapy, placebo 1.5 g/dL decrease) was 0.9 g/dL. The “Mean change from Baseline Hb Day 42 (or last value carried forward)” value (hemoglobin [4]; CKD subjects previously on rhEPO (discontinued 5-14 days before), mean baseline Hb 11.7 g/dL, placebo −1.5) was -0.9 g/dL, the “hemoglobin levels versus placebo” value (hemoglobin [4]; rhEPO-naive CKD subjects, oral three-times per week for 4 weeks (FIG. 5)) was “hemoglobin levels were higher” and the “Mean change from Baseline Hb Day 42 (or last value carried forward)” value (hemoglobin [4]; rhEPO-naive CKD subjects, mean baseline Hb 9.6 g/dL, placebo −0.35, p = 0.036) was 1.9 g/dL. For the same compound, the “EPO Intravenous” value (circulating EPO [5]) was 1309 mIU/ml, the “Hemoglobin 6 mg/kg cmpd” value (hemoglobin [6]) was 12.86 g/dL and the “Hemoglobin 20 mg/kg cmpd” value (hemoglobin [6]) was 12.92 g/dL. The “Hemoglobin 60 mg/kg cmpd” value (hemoglobin [6]) was 13.47 g/dL.

With Cc1nc(C(=O)NCC(=O)O)c(O)c2ccc(Oc3ccccc3)cc12 [Compound B, [(4-Hydroxy-1-methyl-7-phenoxy-isoquinoline-3-carbonyl)-amino]-acetic acid] the “Peak EPO” value (circulating EPO [2]; single dose 3 mg/kg, pre-dose 4.2) was 13.1, the “Peak EPO” value (circulating EPO [2]; single dose 30 mg/kg, pre-dose 0) was 1534.0 and the “Peak EPO” value (circulating EPO [2]; single dose 60 mg/kg, pre-dose 1.2) was 2739.8.

For COc1ccc(Oc2ccc3c(O)c(C(=O)NCC(=O)O)ncc3c2)cc1 [Compound C, {[4-Hydroxy-7-(4-methoxy-phenoxy)-isoquinoline-3-carbonyl]-amino}-acetic acid], the “EPO Intravenous” value (circulating EPO [5]) was 1663 mIU/ml, the “Hemoglobin 6 mg/kg cmpd” value (hemoglobin [6]) was 13.68 g/dL and the “Hemoglobin 20 mg/kg cmpd” value (hemoglobin [6]) was 14.29 g/dL. For the same compound, the “Hemoglobin 60 mg/kg cmpd” value (hemoglobin [6]) was 14.94 g/dL.

For O=C(O)CNC(=O)c1ncc2c(Oc3ccccc3)cccc2c1O [Compound D, [(4-Hydroxy-8-phenoxy-isoquinoline-3-carbonyl)-amino]-acetic acid], the “EPO Intravenous” value (circulating EPO [5]) was 5473 mIU/ml, the “EPO Oral Gavage” value (circulating EPO [5]) was 1201 mIU/ml and the “Hemoglobin 2 mg/kg cmpd” value (hemoglobin [6]) was 14.1 g/dL. The “Hemoglobin 6 mg/kg cmpd” value (hemoglobin [6]) was 13.98 g/dL and the “Hemoglobin 20 mg/kg cmpd” value (hemoglobin [6]) was 14.55q g/dL.

In the case of Cc1nc(C(=O)NCC(=O)O)c(O)c2cccc(Oc3ccccc3)c12 [Compound E, [(4-Hydroxy-1-methyl-8-phenoxy-isoquinoline-3-carbonyl)-amino]-acetic acid], the “EPO Intravenous” value (circulating EPO [5]) is reported as 2976 mIU/ml, the “EPO Oral Gavage” value (circulating EPO [5]) is reported as 744 mIU/ml and the “Hemoglobin 2 mg/kg cmpd” value (hemoglobin [6]) is reported as 12.23 g/dL. The “Hemoglobin 6 mg/kg cmpd” value (hemoglobin [6]) was 13.29 g/dL, the “Hemoglobin 20 mg/kg cmpd” value (hemoglobin [6]) was 13.41 g/dL and the “Hemoglobin 60 mg/kg cmpd” value (hemoglobin [6]) was 15.9 g/dL.

For Cc1nc(C(=O)NCC(=O)O)c(O)c2ccc(Cl)cc12 [Compound F, [(7-Chloro-4-hydroxy-1-methyl-isoquinoline-3-carbonyl)-amino]-acetic acid], the “EPO Intravenous” value (circulating EPO [5]) was 3967 mIU/ml, the “Hemoglobin 6 mg/kg cmpd” value (hemoglobin [6]) was 13.66 g/dL and the “Hemoglobin 20 mg/kg cmpd” value (hemoglobin [6]) was 14.15 g/dL. The “Hemoglobin 60 mg/kg cmpd” value (hemoglobin [6]) was 17.74 g/dL.

In the case of Cc1nc(C(=O)NCC(=O)O)c(O)c2cccc(Oc3ccc(F)cc3)c12 [Compound G, {[8-(4-Fluoro-phenoxy)-4-hydroxy-1-methyl-isoquinoline-3-carbonyl]-amino}-acetic acid], the “EPO Intravenous” value (circulating EPO [5]) is reported as 10969 mIU/ml, the “EPO Oral Gavage” value (circulating EPO [5]) is reported as 2546 mIU/ml and the “Hemoglobin 2 mg/kg cmpd” value (hemoglobin [6]) is reported as 14.39 g/dL. For the same compound, the “Hemoglobin 6 mg/kg cmpd” value (hemoglobin [6]) was 13.13 g/dL, the “Hemoglobin 20 mg/kg cmpd” value (hemoglobin [6]) was 14.85 g/dL and the “Hemoglobin 60 mg/kg cmpd” value (hemoglobin [6]) was 17.7 g/dL.

With N#Cc1nc(C(=O)NCC(=O)O)c(O)c2sccc12 [Compound H, [(4-cyano-7-hydroxy-thieno[3,2-c]pyridine-6-carbonyl)-amino]-acetic acid] the “EPO Intravenous” value (circulating EPO [5]) was 1242 mIU/ml, the “EPO Oral Gavage” value (circulating EPO [5]) was 608 mIU/ml and the “Hemoglobin 2 mg/kg cmpd” value (hemoglobin [6]) was 12.67 g/dL. For the same compound, the “Hemoglobin 6 mg/kg cmpd” value (hemoglobin [6]) was 13.65 g/dL, the “Hemoglobin 20 mg/kg cmpd” value (hemoglobin [6]) was 13.53 g/dL and the “Hemoglobin 60 mg/kg cmpd” value (hemoglobin [6]) was 14.2 g/dL.

With “rhEPO: recombinant human erythropoietin (rhEPO), an erythropoiesis stimulating protein; current therapy for anemia” the “Cmax EPO” value ([7]; rhEPO 10 U/kg i.v.) was 181 mIU/ml, the “Cmax EPO” value ([7]; rhEPO 50 U/kg i.v.) was 1,430 mIU/ml and the “Cmax EPO” value ([7]; rhEPO 150 U/kg i.v.) was 4,438 mIU/ml. The “Cmax EPO” value ([7]; rhEPO 300 U/kg s.c.) was 429 mIU/ml, the “Cmax EPO” value ([7]; rhEPO 450 U/kg s.c.) was 1,263 mIU/ml and the “Cmax EPO” value ([7]; rhEPO 500 U/kg i.v.) was 16,257 mIU/ml. The “Cmax EPO” value ([7]; rhEPO 600 U/kg s.c.) was 1,263 mIU/ml.
